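Tested at 5 concentrations; 48 h exposure; 96-well plates; endpoints linearly interpolated, else capped at highest concentration. The concentration for 50% growth inhibition is given as GI50.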 The source made the active and inactive calls. No stated cut-off is given here; in the data, active = GI50 up to about 1.1 µM and inactive = higher.
How the values were obtained:
Test in all cases: NCI tumour cell line growth inhibition, 48 h
NCI-H226 = system: NCI-H226
IGROV-1 = system: IGROV-1
Malme-3M = system: Malme-3M
K562 = system: K562
SF-268 = system: SF-268
HCT-116 = system: HCT-116
HOP-62 = system: HOP-62
SK-MEL-28 = system: SK-MEL-28
SK-MEL-5 = system: SK-MEL-5
OVCAR-4 = system: OVCAR-4
NCI-H460 = system: NCI-H460
TK-10 = system: TK-10
SK-OV-3 = system: SK-OV-3
SR = system: SR
LOX IMVI = system: LOX IMVI
RXF 393 = system: RXF 393
SF-539 = system: SF-539
SK-MEL-2 = system: SK-MEL-2
SW-620 = system: SW-620

Measured: GI50

S=C1CC(c2ccc(Cl)cc2)Sc2ccccc2N1 (configuration not stated)
inactive: NCI-H226 50.5 µM | IGROV-1 43.4 µM | Malme-3M 53.2 µM | K562 > 10 µM | SF-268 24.7 µM | HCT-116 19.1 µM | HOP-62 16.4 µM | SK-MEL-28 25.2 µM | SK-MEL-5 25.3 µM | OVCAR-4 28.8 µM | NCI-H460 60 µM | TK-10 46.7 µM | SK-OV-3 22.5 µM | SR 33.3 µM | LOX IMVI 40.8 µM | RXF 393 16.2 µM

Cc1nc(-n2nc(-c3ccccc3)cc2-c2ccccc2)sc1C(=O)CC(=O)C(=O)Nc1ccc(O)cc1
inactive: SF-539 > 100 µM | NCI-H226 > 100 µM | IGROV-1 > 100 µM | Malme-3M > 100 µM | K562 > 100 µM | SF-268 > 100 µM | SK-MEL-2 > 100 µM | HCT-116 > 100 µM | HOP-62 > 100 µM | SW-620 > 100 µM | OVCAR-4 > 100 µM | TK-10 > 100 µM | SK-OV-3 > 100 µM | SR > 100 µM | LOX IMVI > 100 µM | RXF 393 > 100 µM

NC(=O)c1nnc2ccc(F)cc2c1N
inactive: SF-539 > 100 µM | NCI-H226 7.57 µM | IGROV-1 > 100 µM | Malme-3M > 100 µM | K562 > 100 µM | SF-268 > 100 µM | SK-MEL-2 > 100 µM | HCT-116 > 100 µM | HOP-62 > 100 µM | SK-MEL-5 > 100 µM | SW-620 > 100 µM | OVCAR-4 > 100 µM | NCI-H460 > 100 µM | TK-10 68.7 µM | SK-OV-3 87.5 µM | SR > 100 µM | LOX IMVI 69 µM

O=[N+]([O-])c1ccc(C[P+](c2ccccc2)(c2ccccc2)c2ccccc2)cc1
inactive: SF-539 67.8 µM | NCI-H226 > 100 µM | IGROV-1 25.4 µM | Malme-3M 37.8 µM | K562 70.8 µM | SK-MEL-2 25.4 µM | HCT-116 36.5 µM | HOP-62 > 100 µM | SK-MEL-28 35.1 µM | SK-MEL-5 57 µM | SW-620 88.3 µM | NCI-H460 71.3 µM | TK-10 56 µM | SK-OV-3 > 100 µM | SR 38.4 µM | LOX IMVI 42 µM | RXF 393 11.9 µM

COC(=O)C1C(OC(=O)C(Cl)(c2ccccc2)c2ccccc2)CC2CCC1N2C (configuration not stated)
inactive: SF-539 > 100 µM | NCI-H226 > 100 µM | IGROV-1 > 100 µM | Malme-3M > 100 µM | K562 > 100 µM | SF-268 > 100 µM | HCT-116 > 100 µM | HOP-62 > 100 µM | SK-MEL-28 > 100 µM | SK-MEL-5 > 100 µM | SW-620 > 100 µM | TK-10 > 100 µM | SK-OV-3 > 100 µM | SR > 100 µM | LOX IMVI > 100 µM | RXF 393 > 100 µM
